Experimental data from US20070003672A1, “Tri-part calcium fortified compositions and methods of making the same” (priority 2005, published 2007).
“And” between values parts separate entries of the source, which are not always exact repeats. Identical values can stand only once.

Assay: Physical/chemical attributes (calcium, pH, titratable acidity, Brix, Brix/Acid ratio) of calcium fortified orange juice
Type: physicochemical
Parameters: unit not given here
Conditions: orange juice fortified at 450 mg/100 mL calcium load
Text: The flavor of orange juice, for example, can be characterized by a unique balance of sweetness resulting from the sugar content and tartness resulting from the acid content. A challenge of fortifying orange juice with nutritionally significant amounts of calcium is maintaining the sweet to tart balance. This balance can be expressed analytically as the Brix to acid ratio, as described above. The Brix component of the ratio is the measure of soluble solids in the beverage often determined by a refractometer. The acid component can be determined by titration with a base such as sodium hydroxide. The Brix to acid ratio is an analytical representation or measure of the sweet to tart taste balance.
A variety of calcium salts, i.e., the calcium components, were evaluated to determine their effects on the Brix-acid ratio. In this evaluation, orange juices fortified with different calcium salts were prepared at 450 mg/100 mL of calcium load. […]
Orange juices fortified with various combinations of calcium salts, i.e. calcium components, were evaluated based on physical/chemical attributes compared to unfortified orange juice.

| Compound | Calcium - Juice (48 Hours) |
| --- | --- |
| N[C@@H](CCC(=O)[O-])C(=O)[O-].O.O.O.O.[Ca+2] [calcium L-glutamate tetrahydrate] | 207 |
| O.O.O=C([O-])[C@H](O)[C@@H](O)C(=O)[O-].[Ca+2] [calcium L-tartrate dihydrate] | 140 |
| O=C([O-])[O-].[Ca+2] [calcium carbonate] | 200 |
| O.O.[Ca+2].[Cl-].[Cl-] [calcium chloride dihydrate] | 206 |
| O=C[O-].O=C[O-].[Ca+2] [calcium formate] | 206 |
| O.O.O.O=C([O-])/C=C/C(=O)[O-].[Ca+2] [calcium fumarate trihydrate] | 202 |
| O.O=P([O-])([O-])OCC(O)CO.[Ca+2] (stereo not shown) [calcium glycerophosphate monohydrate] | 187 |
| CC(O)C(=O)[O-].CC(O)C(=O)[O-].O.O.O.O.O.[Ca+2] (stereo not shown) [calcium lactate pentahydrate] | 204 |
| O=C([O-])CC(O)C(=O)[O-].[Ca+2] (stereo not shown) [calcium malate] | 213 |
| O.O=C([O-])CCC(=O)[O-].[Ca+2] [calcium succinate monohydrate] | 206 |
| O=P([O-])([O-])O.[Ca+2] [dicalcium phosphate anhydrous] | 203 |
| O.O.O=P([O-])([O-])O.[Ca+2] [dicalcium phosphate dihydrate] | 181 |
| O.O=P([O-])(O)O.O=P([O-])(O)O.[Ca+2] [monocalcium phosphate monohydrate] | 207 |
| O=C([O-])CC(O)(CC(=O)[O-])C(=O)[O-].O=C([O-])CC(O)(CC(=O)[O-])C(=O)[O-].[Ca+2].[Ca+2].[Ca+2] [tri-calcium citrate] | 177 |
| O=P([O-])([O-])[O-].O=P([O-])([O-])[O-].[Ca+2].[Ca+2].[Ca+2] [tricalcium phosphate (fine), tricalcium phosphate] | 197 |
| O=P([O-])([O-])[O-].O=P([O-])([O-])[O-].[Ca+2].[Ca+2].[Ca+2] [tricalcium phosphate] | 182 |
| calcium ascorbate dihydrate | 195 |
| calcium gluconate monohydrate | 198 |

Same assay, conditions: orange juice fortified at 450 mg/100 mL calcium load, citrate

| Compound | Calcium - Juice (48 Hours) |
| --- | --- |
| CC(O)C(=O)O.O=C(O)[C@H](O)[C@@H](O)[C@H](O)[C@H](O)CO.O=C([O-])CC(O)(CC(=O)[O-])C(=O)O.[Ca+2] [calcium lactate gluconate citrate] | 200 and 202 |
